Experimental data as given in article PMC7567103 (Nature Communications, 2020).

What was measured:
Type in all cases: cell-based
GHRHR T192A = biological target: T1, GHRHR T192A (Homo sapiens, UniProt Q02643, T192A); assay: cAMP accumulation, T192A; conditions: mean ± SEM, n ≥ 3
T1 construct: GHRHR(23-423)-; HA signal peptide (replaces native signal M1-G22) (N); expressed in transfected cells; host or cells: HEK 293T, pcDNA3.1, transient
Text: (§1) Fig. 2 Molecular recognition of GHRH by GHRHR and comparison of that with LA-PTH–PTH1R and GLP-1–GLP-1R. a Detailed interaction between GHRH and the TMD pocket of GHRHR with hydrogen bonds shown as dotted lines. b, c Pairwise comparison of GHRH bound to GHRHR with GLP-1 and LA-PTH in complex with their corresponding receptors, showing the relative positions of peptide ligands. Lime green, GHRHR; blue, GHRH; red, PTH1R and LA-PTH; purple, GLP-1R and GLP-1. d–f The effects of mutation in the ligand-binding pocket on cAMP accumulation. cAMP levels were measured in wild-type (WT) receptor and alanine mutants in ECL1, 2, and 3 (d), TM1, 2, and 3 (e), and TM5, 6, and 7 (f). cAMP signals were normalized to the maximum response of WT and concentration–response curves were analyzed using a three-parameter logistic equation. Data shown are means ± S.E.M. of at least three independent experiments (n = 3–5), conducted in triplicate. Source data are provided as a Source data file.
(§2) GHRH-stimulated cAMP accumulation was measured by a LANCE Ultra cAMP kit (PerkinElmer). […] After 1 h RT incubation, TR-FRET signals (excitation: 320 nm, emission: 615 and 665 nm) were measured by an EnVision (PerkinElmer).

GHRHR E123A = biological target: T2, GHRHR E123A (Homo sapiens, UniProt Q02643, E123A); assay: cAMP accumulation, E123A; conditions: mean ± SEM, n ≥ 3
T2 construct: GHRHR(23-423)-; HA signal peptide (replaces native signal M1-G22) (N); expressed in transfected cells; host or cells: HEK 293T, pcDNA3.1, transient
Text: as §1, §2

GHRHR L119A = biological target: T3, GHRHR L119A (Homo sapiens, UniProt Q02643, L119A); assay: cAMP accumulation, L119A; conditions: mean ± SEM, n ≥ 3
T3 construct: GHRHR(23-423)-; HA signal peptide (replaces native signal M1-G22) (N); expressed in transfected cells; host or cells: HEK 293T, pcDNA3.1, transient
Text: as §1, §2

GHRHR A271R = biological target: T4, GHRHR A271R (Homo sapiens, UniProt Q02643, A271R); assay: cAMP accumulation, A271R; conditions: mean ± SEM, n ≥ 3
T4 construct: GHRHR(23-423)-; HA signal peptide (replaces native signal M1-G22) (N); expressed in transfected cells; host or cells: HEK 293T, pcDNA3.1, transient
Text: as §1, §2

GHRHR(23-405) = biological target: T5, GHRHR(23-405) (Homo sapiens, UniProt Q02643); assay: cAMP accumulation, construct GHRHR(23-405) (Supplementary Fig. 2b); conditions: HEK 293T; mean ± SEM, n = 8-10
T5 construct: 24 h after transfection with GHRHR(23-423), GHRHR(23-405), GHRHR(23-405)-LgBiT-2MBP, or HA-Flag-GHRHR (WT and mutants); HA signal peptide (replaces native signal M1-G22) (N); expressed in transfected cells; host or cells: HEK 293 T
Experimental: (§3) GHRH-stimulated cAMP accumulation was measured by a LANCE Ultra cAMP kit (PerkinElmer). Briefly, 24 h after transfection with GHRHR(23-423), GHRHR(23-405), GHRHR(23-405)-LgBiT-2MBP, or HA-Flag-GHRHR (WT and mutants), HEK 293 T cells (3000/well in 384-well white plates, PerkinElmer) were digested by 0.2% (w/v) EDTA and 5 μL stimulation buffer (HBSS supplemented with 5 mM HEPES, 0.5 mM IBMX, and 0.1% (w/v) BSA, pH 7.4). Different concentrations (5 μL) of GHRH were then added and the stimulation lasted for 30 min at RT. The reaction was stopped by adding 5 μL Eu-cAMP tracer and 5 μL ULight-anti-cAMP. After 1 h RT incubation, TR-FRET signals (excitation: 320 nm, emission: 615 and 665 nm) were measured by an EnVision (PerkinElmer).
(§4) 223 Supplementary Ta b l e 1. Effects of GHRH-mediated cAMP accumulation.
(§5) Receptor cAMP Cell surface expression Binding
(§6) pEC50 Emax (% WT) (% WT) pIC50 […]
(§7) 225 to determine pEC50 and Emax values. pEC50 is the negative logarithm of the molar
(§8) 226 concentration of agonist that induced half the maximal response. Cell surface […]
(§9) 228 Flag antibody (Sigma-Aldrich, 1:300); Donkey anti-Mouse Alexa Fluor 488-
(§10) 229 conjugated secondary antibody, (ThermoFisher Scientific, 1:1000)] on the […]
(§11) 231 Binding data were analyzed using a three-parameter logistic equation to […]
(§12) 234 determine statistical difference. *P<0.01; ND, not determined.

GHRHR L362A = biological target: T6, GHRHR L362A (Homo sapiens, UniProt Q02643, L362A); assay: cAMP accumulation, L362A; conditions: mean ± SEM, n ≥ 3
T6 construct: GHRHR(23-423)-; HA signal peptide (replaces native signal M1-G22) (N); expressed in transfected cells; host or cells: HEK 293 T
Text: as §1, §2

[1] = biological target: T7, GHRHR(23-405)-15AA-LgBiT-2MBP (Homo sapiens, UniProt Q02643); assay: cAMP accumulation, construct GHRHR(23-405)-15AA-LgBiT-2MBP (Supplementary Fig. 2b); conditions: HEK 293T; mean ± SEM, n = 8-10
T7 construct: 24 h after transfection with GHRHR(23-423), GHRHR(23-405), GHRHR(23-405)-LgBiT-2MBP, or HA-Flag-GHRHR (WT and mutants); HA signal peptide (replaces native signal M1-G22) (N); expressed in transfected cells; host or cells: HEK 293 T
T7 sequence (Q02643 23-405): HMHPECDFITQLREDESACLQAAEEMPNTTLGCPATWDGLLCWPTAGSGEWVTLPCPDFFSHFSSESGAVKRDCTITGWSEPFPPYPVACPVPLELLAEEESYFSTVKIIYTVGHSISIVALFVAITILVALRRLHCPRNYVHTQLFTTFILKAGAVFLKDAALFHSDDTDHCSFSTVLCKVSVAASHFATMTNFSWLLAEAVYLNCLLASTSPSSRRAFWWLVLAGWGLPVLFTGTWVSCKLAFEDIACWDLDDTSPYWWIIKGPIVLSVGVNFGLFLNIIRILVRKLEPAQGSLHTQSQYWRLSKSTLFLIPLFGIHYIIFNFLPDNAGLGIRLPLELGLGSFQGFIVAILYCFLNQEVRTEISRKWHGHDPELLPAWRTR
Experimental: as §3, §4, §5, §6, §7, §8, §9, §10, §11, §12

GHRHR E361A = biological target: T8, GHRHR E361A (Homo sapiens, UniProt Q02643, E361A); assay: cAMP accumulation, E361A; conditions: mean ± SEM, n ≥ 3
T8 construct: GHRHR(23-423)-; HA signal peptide (replaces native signal M1-G22) (N); expressed in transfected cells; host or cells: HEK 293 T
Text: as §1, §2

GHRHR N346A = biological target: T9, GHRHR N346A (Homo sapiens, UniProt Q02643, N346A); assay: cAMP accumulation, N346A; conditions: mean ± SEM, n ≥ 3
T9 construct: GHRHR(23-423)-; HA signal peptide (replaces native signal M1-G22) (N); expressed in transfected cells; host or cells: HEK 293T, pcDNA3.1, transient
Text: as §1, §2

GHRHR F126A = biological target: T10, GHRHR F126A (Homo sapiens, UniProt Q02643, F126A); assay: cAMP accumulation, F126A; conditions: mean ± SEM, n ≥ 3
T10 construct: GHRHR(23-423)-; HA signal peptide (replaces native signal M1-G22) (N); expressed in transfected cells; host or cells: HEK 293T, pcDNA3.1, transient
Text: as §1, §2

GHRHR F187A = biological target: T11, GHRHR F187A (Homo sapiens, UniProt Q02643, F187A); assay: cAMP accumulation, F187A; conditions: mean ± SEM, n ≥ 3
T11 construct: GHRHR(23-423)-; HA signal peptide (replaces native signal M1-G22) (N); expressed in transfected cells; host or cells: HEK 293T, pcDNA3.1, transient
Text: as §1, §2

GHRHR V129A = biological target: T12, GHRHR V129A (Homo sapiens, UniProt Q02643, V129A); assay: cAMP accumulation, V129A; conditions: mean ± SEM, n ≥ 3
T12 construct: GHRHR(23-423)-; HA signal peptide (replaces native signal M1-G22) (N); expressed in transfected cells; host or cells: HEK 293T, pcDNA3.1, transient
Text: as §1, §2

T9 sequence (Q02643 23-423 N346A): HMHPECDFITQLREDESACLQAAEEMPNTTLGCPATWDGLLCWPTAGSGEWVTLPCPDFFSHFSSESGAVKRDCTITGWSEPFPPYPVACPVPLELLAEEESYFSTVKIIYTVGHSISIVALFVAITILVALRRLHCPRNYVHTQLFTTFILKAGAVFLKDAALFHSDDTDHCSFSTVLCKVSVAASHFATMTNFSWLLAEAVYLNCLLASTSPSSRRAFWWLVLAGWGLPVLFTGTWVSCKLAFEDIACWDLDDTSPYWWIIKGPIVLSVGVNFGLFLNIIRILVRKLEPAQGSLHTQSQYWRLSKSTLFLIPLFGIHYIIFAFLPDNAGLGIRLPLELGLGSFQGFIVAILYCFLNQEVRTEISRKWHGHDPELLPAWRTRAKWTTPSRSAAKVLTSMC
T8 sequence (Q02643 23-423 E361A): as the sequence (Q02643 23-423 N346A) above, with A324N, E339A counted along it
T12 sequence (Q02643 23-423 V129A): as the sequence (Q02643 23-423 N346A) above, with V107A, A324N counted along it
T4 sequence (Q02643 23-423 A271R): as the sequence (Q02643 23-423 N346A) above, with A249R, A324N counted along it
T3 sequence (Q02643 23-423 L119A): as the sequence (Q02643 23-423 N346A) above, with L97A, A324N counted along it
T10 sequence (Q02643 23-423 F126A): as the sequence (Q02643 23-423 N346A) above, with F104A, A324N counted along it
T1 sequence (Q02643 23-423 T192A): as the sequence (Q02643 23-423 N346A) above, with T170A, A324N counted along it
T2 sequence (Q02643 23-423 E123A): as the sequence (Q02643 23-423 N346A) above, with E101A, A324N counted along it
T11 sequence (Q02643 23-423 F187A): as the sequence (Q02643 23-423 N346A) above, with F165A, A324N counted along it
T6 sequence (Q02643 23-423 L362A): as the sequence (Q02643 23-423 N346A) above, with A324N, L340A counted along it

CC[C@H](C)[C@H](NC(=O)[C@H](C)NC(=O)[C@H](CC(=O)O)NC(=O)[C@H](C)NC(=O)[C@@H](N)Cc1ccc(O)cc1)C(=O)N[C@@H](Cc1ccccc1)C(=O)N[C@H](C(=O)N[C@@H](CC(N)=O)C(=O)N[C@@H](CO)C(=O)N[C@@H](Cc1ccc(O)cc1)C(=O)N[C@@H](CCCNC(=N)N)C(=O)N[C@@H](CCCCN)C(=O)N[C@H](C(=O)N[C@@H](CC(C)C)C(=O)NCC(=O)N[C@@H](CCC(N)=O)C(=O)N[C@@H](CC(C)C)C(=O)N[C@@H](CO)C(=O)N[C@@H](C)C(=O)N[C@@H](CCCNC(=N)N)C(=O)N[C@@H](CCCCN)C(=O)N[C@@H](CC(C)C)C(=O)N[C@@H](CC(C)C)C(=O)N[C@@H](CCC(N)=O)C(=O)N[C@@H](CC(=O)O)C(=O)N[C@H](C(=O)N[C@@H](CCSC)C(=O)N[C@@H](CO)C(=O)N[C@@H](CCCNC(=N)N)C(=O)N[C@@H](CCC(N)=O)C(=O)N[C@@H](CCC(N)=O)C(=O)NCC(=O)N[C@@H](CCC(=O)O)C(=O)N[C@@H](CO)C(=O)N[C@@H](CC(N)=O)C(=O)N[C@@H](CCC(N)=O)C(=O)N[C@@H](CCC(=O)O)C(=O)N[C@@H](CCCNC(=N)N)C(=O)NCC(=O)N[C@@H](C)C(=O)N[C@@H](CCCNC(=N)N)C(=O)N[C@@H](C)C(=O)N[C@@H](CCCNC(=N)N)C(=O)N[C@@H](CC(C)C)C(N)=O)[C@@H](C)CC)C(C)C)[C@@H](C)O [GHRH, Growth hormone-releasing hormone]
EC50 (GHRHR T192A): 0.229 nM
Emax (GHRHR T192A): 103.11±1.18 % WT
EC50 (GHRHR E123A): 0.0724 nM
Emax (GHRHR E123A): 100.33±1.34 % WT
EC50 (GHRHR L119A): 0.724 nM
Emax (GHRHR L119A): 98.67±1.48 % WT
EC50 (GHRHR A271R): 0.105 nM
Emax (GHRHR A271R): 100.81±1.19 % WT
EC50 (GHRHR(23-405)): 0.871 nM
Emax (GHRHR(23-405)): 120.55±1.97 % WT
EC50 (GHRHR L362A): 0.112 nM
Emax (GHRHR L362A): 103.97±0.47 % WT
EC50 [1]: 2.88 nM
Emax [1]: 78.82±10.52 % WT
EC50 (GHRHR E361A): 1.05 nM
Emax (GHRHR E361A): 18.75±4.38 % WT
EC50 (GHRHR N346A): 1.41 nM
Emax (GHRHR N346A): 101.21±3.69 % WT
EC50 (GHRHR F126A): 1.1 nM
Emax (GHRHR F126A): 98.92±0.84 % WT
EC50 (GHRHR F187A): 1.15 nM
Emax (GHRHR F187A): 101.68±1.52 % WT
EC50 (GHRHR V129A): 166 nM
Emax (GHRHR V129A): 24.33±6.11 % WT
